Laboratory results published in article PMC10708623, “The Synergistic Effect of GH13 and GH57 GBEs of Petrotoga mobilis Results in α-Glucan Molecules with a Higher Branch Density” (Polymers, 2023).

Target: T1, PmGBE57 (Petrotoga mobilis, UniProt A9BH92)
T1 construct: gene Pmob_0588; full-length codon-optimized gene in pET28a(+), C-terminal His-tag, expressed in E. coli BL21(DE3), Ni-NTA purified
T1 sequence (A9BH92 1-538): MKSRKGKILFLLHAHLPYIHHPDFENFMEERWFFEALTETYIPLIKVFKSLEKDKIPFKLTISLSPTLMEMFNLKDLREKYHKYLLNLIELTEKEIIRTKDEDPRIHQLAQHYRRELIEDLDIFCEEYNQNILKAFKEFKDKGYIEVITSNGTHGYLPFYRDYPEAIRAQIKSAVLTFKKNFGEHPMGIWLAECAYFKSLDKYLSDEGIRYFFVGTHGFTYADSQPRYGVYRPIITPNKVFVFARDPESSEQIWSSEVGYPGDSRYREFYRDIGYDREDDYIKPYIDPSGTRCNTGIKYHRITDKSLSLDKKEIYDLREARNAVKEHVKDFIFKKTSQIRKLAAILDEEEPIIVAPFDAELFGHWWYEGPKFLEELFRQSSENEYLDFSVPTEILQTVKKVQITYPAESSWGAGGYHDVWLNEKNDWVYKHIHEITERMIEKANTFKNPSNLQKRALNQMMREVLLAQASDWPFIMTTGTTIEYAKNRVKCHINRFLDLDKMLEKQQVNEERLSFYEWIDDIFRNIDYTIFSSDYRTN
Test: HPAEC-PAD chain length analysis after […] h
Format: biochemical
Settings: 1 U^B/g substrate, hydrolysis only, reagent also contains DP6

## OC[C@H]1O[C@H](O[C@H]2[C@H](O)[C@@H](O)[C@@H](O[C@H]3[C@H](O)[C@@H](O)[C@@H](O[C@H]4[C@H](O)[C@@H](O)[C@@H](O[C@H]5[C@H](O)[C@@H](O)[C@@H](O[C@H]6[C@H](O)[C@@H](O)[C@@H](O[C@H]7[C@H](O)[C@@H](O)C(O)O[C@@H]7CO)O[C@@H]6CO)O[C@@H]5CO)O[C@@H]4CO)O[C@@H]3CO)O[C@@H]2CO)[C@H](O)[C@@H](O)[C@@H]1O (stereo partly shown) [MD7, maltoheptaose]
  HPAEC-PAD chain length analysis after 24 h: PmGBE57 showed the ability to utilize the short DP7 chains
